Measurements as given in patent EP0025288A1, “Derivatives of monic acid, processes for their preparation, compositions containing them and their preparation” (priority 1979, dated 1981).
Converted amounts (≈) assume the structure as drawn.

How the values were obtained:
Assay type in all cases: cell-based
[1] = tested on: E coli NCTC 10418; assay: MIC, veterinary bacteria; details: veterinary bacteria (Table 2), read-out: MIC
[2] = tested on: Past Haemolytica PA5; assay: MIC, veterinary bacteria; details: veterinary bacteria (Table 2), read-out: MIC
[3] = tested on: Erysipelothrix rhusiopathiae NCTC 8163; assay: MIC, veterinary bacteria; details: NCTC8163, veterinary bacteria (Table 2), read-out: MIC
[4] = tested on: Staph aureus B4 (pen resis); assay: MIC, veterinary bacteria; details: Staphylococcus aureus, veterinary bacteria (Table 2), read-out: MIC
[5] = tested on: Strep agalactiae SPA1; assay: MIC, veterinary bacteria; details: veterinary bacteria (Table 2), read-out: MIC
[6] = tested on: M. suipneumoniae HK(2); assay: MIC, anti-mycoplasmal, Friis broth solidified with 0.9% agarose; details: Mesomycoplasma hyopneumoniae, 144 h, inoculum 10^3 to 10^5 C.F.U., 6 days incubation at 37°C, read-out: in vitro MIC
[7] = tested on: M. suipneumoniae Str. 11; assay: as above; details: Mesomycoplasma hyopneumoniae, 144 h, inoculum 10^3 to 10^5 C.F.U., 6 days incubation at 37°C, read-out: in vitro MIC
[8] = tested on: M. suipneumoniae PW/C/210; assay: as above; details: Mesomycoplasma hyopneumoniae, 144 h, inoculum 10^3 to 10^5 C.F.U., 6 days incubation at 37°C, read-out: in vitro MIC
[9] = tested on: M. hyorhinis ATCC 23234; assay: as above; details: Mesomycoplasma hyorhinis, ATCC23234, 144 h, inoculum 10^3 to 10^5 C.F.U., 6 days incubation at 37°C, read-out: in vitro MIC
[10] = tested on: M. gallisepticum S6; assay: as above; details: Mycoplasmoides gallisepticum, 144 h, inoculum 10^3 to 10^5 C.F.U., 6 days incubation at 37°C, read-out: in vitro MIC

For `CC(=CC(=O)OCCCC(=O)c1ccccc1)CC1OCC(CC2OC2C(C)C(C)O)C(O)C1O` (stereo not shown) [Example 5, 4-Phenylbutan-4-onyl monate A], the MIC [1] was 80 µg/mL (≈ 163 µM), the MIC [2] was 10 µg/mL (≈ 20.4 µM) and the MIC [3] was 40 µg/mL (≈ 81.5 µM). For the same molecule, the MIC [4] was 0.156 µg/mL (≈ 0.318 µM), the MIC [5] was 0.625 µg/mL (≈ 1.27 µM) and the MIC [6] was 0.5 µg/mL (≈ 1.02 µM). For the same molecule, the MIC [7] was 0.25 µg/mL (≈ 0.51 µM), the MIC [8] was 0.25 µg/mL (≈ 0.51 µM) and the MIC [9] was 0.25 µg/mL (≈ 0.51 µM). It also gave an MIC [10] of 1 µg/mL (≈ 2.04 µM).
